{"source": "paper PMC11608315", "about": "“Subtilase SBT5.2 inactivates flagellin immunogenicity in the plant apoplast” (Nature Communications, 2024)", "key": {"[1]": {"tested_on": "SBT5.2, SBT1.9a, SBT1.7a, SBT1.7c in AF", "assay": "QP processing in AF of plants silenced for subtilases (VIGS)", "assay_type": "in vitro ADME, Nicotiana benthamiana", "conditions": "10 µM QP; TRV::GFP = 100%; n = 3 plants; Fig. 4a", "experimental": "(§1) The quenched peptides (QPs) from flagellin were commercially synthesised with a DABCYL N-terminal modification and a Glu-EDANS C-terminal modification (GenScript, Piscataway, New Jersey, United States) at a purity of 95% (Supplementary Table 2). They were resuspended in DMSO at a concentration of 1 mM. This stock solution was further diluted in water to a concentration of 200 µM. AFs or purified SBT5.2a were mixed with QPs at a final concentration of 10 µM in a volume of 100 µl, and fluorescence was measured immediately at 21 °C using an Infinite M200 plate reader (Tecan, Mannedorf, Switzerland) every minute over 5 min with an excitation wavelength of 335 nm and emission wavelength of 493 nm.\n(§2) Agrobacterium cultures were grown overnight and resuspended in an agroinfiltration buffer at OD600 = 0.5. Agrobacteria carrying binary plasmids for expressing RNA2 of TRV-carrying silencing fragments (Supplementary Table 1) were mixed 1:1 with Agrobacteria containing TRV1[38]. After incubation for 1 h at 21 °C, the mixed cultures were infiltrated into the leaves of 14-day-old N. benthamiana plants. The infiltrated plants were grown for another 4 to 5 weeks in a growth chamber until use.\nN. benthamiana leaves were submerged in ice-cold water and vacuum infiltrated in a 50 ml syringe with a plunger. […]"}, "[2]": {"tested_on": "subtilases (SBTs), papain-like Cys proteases (PLCPs) and metalloproteases in AF", "assay": "QP processing in AF of leaves expressing protease inhibitors Epi1, SlCys8 or HsTIMP", "assay_type": "biochemical, Nicotiana benthamiana", "conditions": "AF from leaves transiently expressing Epi1 (HsTIMP for comparison); EV = 100%; n = 3; Fig. 3a", "experimental": "(§3) Agrobacterium tumefaciens GV3101 (pMP90) was used for agroinfiltration of N. benthamiana. Agrobacteria were grown overnight in Luria-Bertani (LB) medium with 10 μg/ml gentamycin and 50 μg/ml kanamycin at 28 °C. For transient expression of proteins in N. benthamiana, overnight cultures of Agrobacterium carrying binary vectors listed in Supplementary Table 1 were harvested by centrifugation. Bacterial cells were resuspended in agroinfiltration buffer (10 mM MgCl2, 10 mM MES pH 5.6, 150 μM acetosyringone) and mixed (1:1) with agrobacteria carrying the silencing inhibitor p19 at an OD600 of 0.5. After 1 h at 28 °C, cells were infiltrated into leaves of 4-week-old N. benthamiana. The infected plants were grown in a growth chamber until use.\nas §1, with “This stock solution was further diluted in water to a concentration of 200 µM.” left out, “nm. […]” for “nm.”"}, "[3]": {"tested_on": "AF of sbt5.2 mutant N. benthamiana", "assay_type": "in vitro ADME, Nicotiana benthamiana", "conditions": "10 µM QP; n = 4; Fig. 5b", "experimental": "as §1\n(§4) N. benthamiana leaves were submerged in ice-cold water and vacuum infiltrated in a 50 ml syringe with a plunger. The surface of water-infiltrated leaves was dried with absorbing paper and leaves were carefully inserted into an empty 20 ml syringe, which was placed in a 50 ml tube. AFs were collected by centrifugation at 2000 × g at 4 °C for 10 min. AFs were immediately used or frozen using liquid nitrogen and stored at −20 °C until use."}, "purified SBT5.2a-His [4]": {"tested_on": "purified SBT5.2a-His", "assay": "QP cleavage by purified SBT5.2a-His (fluorescence)", "assay_type": "biochemical, Nicotiana benthamiana", "conditions": "10 μl of 25 μg/ml SBT5.2a-His, 10 µM QP; n = 4; Fig. 6a", "experimental": "as §1\n(§5) Four-week-old N. benthamiana leaves were infiltrated with a 1:1 mixture (final OD600 = 0.5 for each) of Agrobacterium tumefaciens GV3101 containing the silencing suppressor P19 and pPB097[22]. Apoplastic fluid containing SBT5.2a-His was extracted 6 days after infiltration as described above and purified as previously described[40],[41]. Briefly, SBT5.2a-His was purified by HisPur™ Ni-NTA resin and concentrated in 25 mM Tris-HCl pH = 6.8 using a 50 kDa MWCO Amicon Ultra-15 filter."}, "[5]": {"tested_on": "apoplastic proteases in apoplastic fluids (AF) of N. benthamiana", "assay": "Residual immunogenicity (ROS assay) after incubation of elicitor in AF of WT plants", "assay_type": "in vitro ADME, Nicotiana benthamiana", "conditions": "ROS read-out, n = 6", "experimental": "as §4\n(§6) ROS assays were performed as described previously. Briefly, after incubation in water overnight, one leaf disc (6 mm diameter) was added to 100 µl solution containing 25 ng/µl luminol, 25 ng/µl Horse Radish Peroxidase (HRP) and specified elicitor treatments. For assays with treated elicitors, elicitor peptides or purified flagellin were incubated in AFs from N. benthamiana leaves (wild-type, agroinfiltrated, VIGS-silenced or sbt5.2 mutants) or purified SBT5.2a-HIS for the specified time at 21 °C. After incubation, 25 ng/µl luminol and 25 ng/µl HRP were added to the AFs. Chemiluminescence was measured immediately with the Infinite M200 plate reader (Tecan, Mannedorf, Switzerland) every minute for one hour. Standard errors were calculated at each time point and for each treatment."}, "[6]": {"tested_on": "AF of sbt5.2 mutant N. benthamiana", "assay_type": "in vitro ADME, Nicotiana benthamiana", "conditions": "100 nM flg22, 30 min in AF; ROS read-out, n = 6; Fig. 5c", "experimental": "as §4, §6"}, "[7]": {"tested_on": "subtilases in AF of N. benthamiana", "assay": "Residual immunogenicity (ROS assay) after incubation in AF of leaves transiently expressing Epi1 or empty vector", "assay_type": "in vitro ADME, Nicotiana benthamiana", "conditions": "10 µg/ml monomeric flagellin or 100 nM flg22, 40 min in AF; ROS read-out, n = 6; Fig. 3b", "experimental": "as §3\nas §4, with “AFs were immediately used or frozen using liquid nitrogen and stored at −20 °C until use.” left out\nROS assays were performed as described previously. […] Chemiluminescence was measured immediately with the Infinite M200 plate reader (Tecan, Mannedorf, Switzerland) every minute for one hour. Standard errors were calculated at each time point and for each treatment."}, "purified SBT5.2a-His [8]": {"tested_on": "purified SBT5.2a-His", "assay": "Residual immunogenicity (ROS assay) after incubation with purified SBT5.2a-His", "assay_type": "biochemical, Nicotiana benthamiana", "conditions": "50 nM flg22, 10 μg/ml SBT5.2a-His, 40 min; ROS read-out, n = 6; Fig. 6b", "experimental": "as §5, §6"}, "SBT5.2 subtilases in AF": {"tested_on": "SBT5.2 subtilases in AF", "assay": "Residual immunogenicity (ROS assay) after incubation in AF of TRV::SBT5.2 or TRV::GFP plants", "assay_type": "in vitro ADME, Nicotiana benthamiana", "conditions": "100 nM flg22, 0, 30, 60 min in AF; ROS read-out, n = 6; Fig. 4b", "experimental": "as §2, §4\nROS assays were performed as described previously. Briefly, after incubation in water overnight, one leaf disc (6 mm diameter) was added to 100 µl solution containing 25 ng/µl luminol, 25 ng/µl Horse Radish Peroxidase (HRP) and specified elicitor treatments. […] Chemiluminescence was measured immediately with the Infinite M200 plate reader (Tecan, Mannedorf, Switzerland) every minute for one hour. Standard errors were calculated at each time point and for each treatment."}, "[9]": {"assay": "Solubility of quenched peptide (observation on dissolving the powder)", "assay_type": "physicochemical", "conditions": "noticed when dissolving the peptide powder; response to reviewers"}, "FLS2": {"tested_on": "FLS2", "conditions": "microsomal fractions that presumably lack subtilases; read-out: IC50, competition with binding by radiolabeled flg22; cited from earlier work", "description": "However, although flagellin can bind FLS2, it is unclear at this stage if it would also activate FLS2 signalling because that would require subsequent BAK1 binding to FLS2. The extension of flg22 at its C-terminus is likely to obstruct BAK1 binding, based on the structure of flg22 bound to the FLS2 and BAK1[34]."}, "[10]": {"tested_on": "leaf discs of WT or sbt5.2 mutant N. benthamiana", "assay": "ROS burst assay on sbt5.2 mutant versus WT leaf discs (timing, dose response)", "assay_type": "cell-based, Nicotiana benthamiana", "conditions": "n = 12; Fig. 5e, 5f", "experimental": "as §6"}}, "note": "No end group written: not given here."}
{"substance": "SAKDDAAG [QP3, custom-synthesised quenched peptide with cleavage site SAKD ↓ DAAG within flg22, DABCYL and Glu-EDANS]", "values": [{"measurement": "QP processing in AF of TRV::SBT1.9a and TRV::SBT1.7a plants", "setting": "[1]", "result": "also reduced"}, {"measurement": "QP processing in AF of TRV::SBT5.2 plants compared to TRV::GFP control", "setting": "[1]", "result": "not as strongly reduced"}, {"measurement": "QP processing in AF containing Epi1", "setting": "[2]", "result": "suppressed more by Epi1 than by HsTIMP"}, {"measurement": "QP processing in AF of sbt5.2 mutant plants versus WT", "setting": "[3]", "result": "only slightly reduced"}, {"measurement": "cleavage by purified SBT5.2a-His", "setting": "purified SBT5.2a-His [4]", "result": "hardly cleaved"}]}
{"substance": "TRLSSGLKINSAKDDAAGLQIA [flg22, reference compound]", "values": [{"measurement": "immunogenicity after incubation in AF of WT plants", "setting": "[5]; 100 nM flg22, 30 min in AF, Fig. 5c", "result": "quickly lost"}, {"measurement": "immunogenicity after incubation in AF of sbt5.2 plants", "setting": "[6]", "result": "retains immunogenicity significantly longer"}, {"measurement": "immunogenic activity after incubation in AF from leaves expressing Epi1", "setting": "[7]", "result": "immunogenic activity was detected"}, {"measurement": "elicitor activity after incubation with purified SBT5.2a-His", "setting": "purified SBT5.2a-His [8]", "result": "inactivated its elicitor activity"}, {"measurement": "decline of immunogenicity in AF of TRV::SBT5.2 compared to TRV::GFP plants", "setting": "SBT5.2 subtilases in AF", "result": "much slower"}]}
{"substance": "LQIA ↓ TKITS [QP4, custom-synthesised quenched peptide with flg22-flanking site LQIA ↓ TKITS, DABCYL and Glu-EDANS]", "values": [{"measurement": "QP processing in AF containing Epi1", "setting": "[2]", "result": "near complete blockage"}, {"measurement": "QP processing in AF of sbt5.2 mutant plants versus WT", "setting": "[3]", "result": "strongly reduced but not significant"}, {"measurement": "solubility", "setting": "[9]", "result": "problematic"}]}
{"substance": "flagellin", "values": [{"measurement": "oxidative burst after incubation with AF", "setting": "[5]; 10 µg/ml monomeric flagellin incubated with AF for 30 or 60 min, 21 °C, Fig. 1e", "result": "quickly disappears"}, {"measurement": "IC50", "setting": "FLS2", "result": 120, "unit": "nM"}, {"measurement": "timing and amplitude of oxidative burst, WT versus sbt5.2 mutant leaf discs", "setting": "[10]", "result": "similar"}, {"measurement": "immunogenic activity after incubation in AF from leaves expressing Epi1", "setting": "[7]", "result": "immunogenic activity was detected"}]}
